Measured values reported in BindingDB's records for doi:10.1016/j.ejmech.2019.111807 (Universitat De Barcelona, 2020).
pIC50: −log10 of the molar value.

Assay: Bioactivation in CYP1A1 (unknown origin) transfected CHO cells assessed as CYP1A1-mediated drug activation by measuring reduction in cell viability

SMILES | pIC50
CCCCc1c2c(c(C)c3c1C(=O)OC3)Oc1ccccc1O2 | 6.40
CCCCCCc1c2c(c(C)c3c1C(=O)OC3)Oc1ccccc1O2 | 5.59
